*1 amine or outer side, *2 acyl side, *3 side chain or, on linkers, in order; H or OH if unused. Where a SMILES comes first, the peptide text is derived from it. Side-chain parts run from the residue outwards. [ ]: non-standard residue; d: D form. The star is where a group is joined. C20 diacid = O=C(O)CCCCCCCCCCCCCCCCCCC(=O)*; C18 diacid = O=C(O)CCCCCCCCCCCCCCCCC(=O)*; αMePhe(2-F) = C[C@](N)(Cc1ccccc1F)C(=O)O; γGlu = O=C(O)[C@H](CCC(=O)[*:2])N[*:1]; 4Pal = N[C@@H](Cc1ccncc1)C(=O)O; αMeL = CC(C)C[C@](C)(N)C(=O)O; Orn = NCCC[C@H](N)C(=O)O; AEEA = NCCOCCOCC(=O)O; Aib = CC(C)(N)C(=O)O
Tests used:
human GIPR = target: T1, human GIPR (Homo sapiens, UniProt P48546); assay: [125I]-GIP binding, SPA with WGA beads, 0.1% bacitracin; conditions: geometric mean, read-out: hGIPR Ki
T1 construct: expressed in transfected cells; crude membranes
T1 sequence (P48546 22-466): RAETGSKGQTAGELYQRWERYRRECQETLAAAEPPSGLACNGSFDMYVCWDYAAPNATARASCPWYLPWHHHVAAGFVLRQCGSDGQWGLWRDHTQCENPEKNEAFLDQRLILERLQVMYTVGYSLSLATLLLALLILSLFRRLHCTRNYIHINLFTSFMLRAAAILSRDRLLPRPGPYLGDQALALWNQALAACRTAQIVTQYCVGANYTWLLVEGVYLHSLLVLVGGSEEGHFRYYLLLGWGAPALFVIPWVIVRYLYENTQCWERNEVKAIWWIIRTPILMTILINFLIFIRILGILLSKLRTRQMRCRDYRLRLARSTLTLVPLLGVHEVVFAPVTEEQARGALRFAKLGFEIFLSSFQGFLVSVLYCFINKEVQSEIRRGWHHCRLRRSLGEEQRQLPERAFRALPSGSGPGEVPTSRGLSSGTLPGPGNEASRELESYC
In short: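 Ki values are geometric means (SEM, n independent days), derived from four-parameter nonlinear regression of IC50. Membranes came from hGIPR-expressing CHO cells.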

[1] = target: T2, human GLP-1 receptor (GLP-1R) (Homo sapiens, UniProt P43220); assay: cAMP functional assay (HTRF) in HEK293 cells in presence of 0.1% casein; type: cell-based; conditions: HEK293 cells expressing human GLP-1R, geometric mean, read-out: hGLP1R cAMP Rel EC50 nM (SEM, n)
T2 construct: expressed in transfected cells; host or cells: HEK293
T2 sequence (P43220 24-463): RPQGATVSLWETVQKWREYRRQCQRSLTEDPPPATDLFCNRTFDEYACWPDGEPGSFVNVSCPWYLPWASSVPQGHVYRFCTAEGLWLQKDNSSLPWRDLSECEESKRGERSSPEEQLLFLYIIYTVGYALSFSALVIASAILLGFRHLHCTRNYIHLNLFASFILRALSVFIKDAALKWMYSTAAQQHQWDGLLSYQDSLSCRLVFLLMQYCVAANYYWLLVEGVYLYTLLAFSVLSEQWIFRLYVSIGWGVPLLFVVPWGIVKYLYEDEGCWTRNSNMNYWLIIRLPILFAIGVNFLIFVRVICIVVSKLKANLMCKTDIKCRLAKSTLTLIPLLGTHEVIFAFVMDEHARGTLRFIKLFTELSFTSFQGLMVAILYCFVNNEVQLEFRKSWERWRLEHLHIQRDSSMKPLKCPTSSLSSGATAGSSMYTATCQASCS

Row | SMILES | Ki (human GIPR) [nM] | EC50 [1] [nM]
1 | CC[C@H](C)[C@H](NC(=O)[C@H](CO)NC(=O)[C@H](Cc1ccc(O)cc1)NC(=O)[C@H](CC(=O)O)NC(=O)[C@H](CO)NC(=O)[C@@H](NC(=O)[C@](C)(Cc1ccccc1F)NC(=O)[C@@H](NC(=O)CNC(=O)[C@H](CCC(=O)O)NC(=O)C(C)(C)NC(=O)[C@@H](N)Cc1ccc(O)cc1)[C@@H](C)O)[C@@H](C)CC)C(=O)N[C@@H](C)C(=O)N[C@@H](CC(C)C)C(=O)N[C@@H](CC(=O)O)C(=O)N[C@@H](CCCCN)C(=O)N[C@H](C(=O)N[C@@H](Cc1c[nH]cn1)C(=O)N[C@@H](CCC(N)=O)C(=O)NC(C)(C)C(=O)N[C@@H](CCC(=O)O)C(=O)N[C@@H](Cc1ccccc1)C(=O)N[C@H](C(=O)N[C@@H](CC(N)=O)C(=O)N[C@@H](Cc1ccc(O)cc1)C(=O)N[C@@H](CCCCNC(=O)COCCOCCNC(=O)COCCOCCNC(=O)CC[C@H](NC(=O)CCCCCCCCCCCCCCCCCCC(=O)O)C(=O)O)C(=O)N[C@@H](CC(C)C)C(=O)N[C@@H](C)C(=O)NCC(=O)NCC(=O)N1CCC[C@H]1C(=O)N[C@@H](CO)C(=O)N[C@@H](CO)C(=O)NCC(=O)N[C@@H](C)C(=O)N1CCC[C@H]1C(=O)N1CCC[C@H]1C(=O)N1CCC[C@H]1C(=O)N[C@@H](CO)C(N)=O)C(C)C)[C@@H](C)CC [Example 98] (H-Y[Aib]EGT[αMePhe(2-F)]ISDYSIALDKIHQ[Aib]EFVNYK([AEEA-AEEA-γGlu-C20 diacid])LAGGPSSGAPPPS-NH2) | 0.0195 | 649
2 | CC[C@H](C)[C@H](NC(=O)[C@H](CO)NC(=O)[C@H](Cc1ccc(O)cc1)NC(=O)[C@H](CC(=O)O)NC(=O)[C@H](CO)NC(=O)[C@@H](NC(=O)[C@](C)(Cc1ccccc1F)NC(=O)[C@@H](NC(=O)CNC(=O)[C@H](CCC(=O)O)NC(=O)C(C)(C)NC(=O)[C@@H](N)Cc1ccc(O)cc1)[C@@H](C)O)[C@@H](C)CC)C(=O)N[C@@H](C)C(=O)N[C@@H](CC(C)C)C(=O)N[C@@H](CC(=O)O)C(=O)N[C@@H](CCCCN)C(=O)N[C@H](C(=O)N[C@@H](Cc1c[nH]cn1)C(=O)N[C@@H](CCC(N)=O)C(=O)NC(C)(C)C(=O)N[C@@H](CC(=O)O)C(=O)N[C@@H](Cc1ccccc1)C(=O)N[C@H](C(=O)N[C@@H](CCC(=O)O)C(=O)N[C@@H](Cc1ccc(O)cc1)C(=O)N[C@@H](CCCCNC(=O)COCCOCCNC(=O)COCCOCCNC(=O)CC[C@H](NC(=O)CCCCCCCCCCCCCCCCCCC(=O)O)C(=O)O)C(=O)N[C@@H](CC(C)C)C(=O)N[C@@H](CCC(=O)O)C(=O)NCC(=O)NCC(=O)N1CCC[C@H]1C(=O)N[C@@H](CO)C(=O)N[C@@H](CO)C(=O)NCC(=O)N[C@@H](C)C(=O)N1CCC[C@H]1C(=O)N1CCC[C@H]1C(=O)N1CCC[C@H]1C(=O)N[C@@H](CO)C(N)=O)C(C)C)[C@@H](C)CC [Example 99] (H-Y[Aib]EGT[αMePhe(2-F)]ISDYSIALDKIHQ[Aib]DFVEYK([AEEA-AEEA-γGlu-C20 diacid])LEGGPSSGAPPPS-NH2) | 0.0341 | > 5000
3 | CC[C@H](C)[C@H](NC(=O)[C@H](CCCCN)NC(=O)[C@H](CC(=O)O)NC(=O)[C@H](CC(C)C)NC(=O)[C@](C)(CC(C)C)NC(=O)[C@@H](NC(=O)[C@H](CO)NC(=O)[C@H](Cc1ccc(O)cc1)NC(=O)[C@H](CC(=O)O)NC(=O)[C@H](CO)NC(=O)[C@@H](NC(=O)[C@H](Cc1ccccc1)NC(=O)[C@@H](NC(=O)CNC(=O)[C@H](CCC(=O)O)NC(=O)C(C)(C)NC(=O)[C@@H](N)Cc1ccc(O)cc1)[C@@H](C)O)[C@@H](C)CC)[C@@H](C)CC)C(=O)N[C@@H](Cc1c[nH]cn1)C(=O)N[C@@H](CCC(N)=O)C(=O)NC(C)(C)C(=O)N[C@@H](CCC(=O)O)C(=O)N[C@@H](Cc1ccccc1)C(=O)N[C@H](C(=O)N[C@@H](CCC(=O)O)C(=O)N[C@@H](Cc1ccncc1)C(=O)N[C@@H](CCCCNC(=O)COCCOCCNC(=O)COCCOCCNC(=O)CC[C@H](NC(=O)CCCCCCCCCCCCCCCCCCC(=O)O)C(=O)O)C(=O)N[C@@H](CC(C)C)C(=O)N[C@@H](CCC(=O)O)C(=O)NCC(=O)NCC(=O)N1CCC[C@H]1C(=O)N[C@@H](CO)C(=O)N[C@@H](CO)C(=O)NCC(=O)N[C@@H](C)C(=O)N1CCC[C@H]1C(=O)N1CCC[C@H]1C(=O)N1CCC[C@H]1C(=O)N[C@@H](CO)C(N)=O)C(C)C [Example 100] (H-Y[Aib]EGTFISDYSI[αMeL]LDKIHQ[Aib]EFVE[4Pal]K([AEEA-AEEA-γGlu-C20 diacid])LEGGPSSGAPPPS-NH2) | 0.0674 | > 5000
4 | CC[C@H](C)[C@H](NC(=O)[C@H](CCCN)NC(=O)[C@H](CC(=O)O)NC(=O)[C@H](CC(C)C)NC(=O)[C@](C)(CC(C)C)NC(=O)[C@@H](NC(=O)[C@H](CO)NC(=O)[C@H](Cc1ccc(O)cc1)NC(=O)[C@H](CC(=O)O)NC(=O)[C@H](CO)NC(=O)[C@@H](NC(=O)[C@H](Cc1ccccc1)NC(=O)[C@@H](NC(=O)CNC(=O)[C@H](CCC(=O)O)NC(=O)C(C)(C)NC(=O)[C@@H](N)Cc1ccc(O)cc1)[C@@H](C)O)[C@@H](C)CC)[C@@H](C)CC)C(=O)N[C@@H](Cc1c[nH]cn1)C(=O)N[C@@H](CCC(N)=O)C(=O)NC(C)(C)C(=O)N[C@@H](CC(=O)O)C(=O)N[C@@H](Cc1ccccc1)C(=O)N[C@H](C(=O)N[C@H](CCC(=O)O)C(=O)N[C@@H](Cc1ccc(O)cc1)C(=O)N[C@@H](CCCCNC(=O)COCCOCCNC(=O)COCCOCCNC(=O)CC[C@H](NC(=O)CCCCCCCCCCCCCCCCCCC(=O)O)C(=O)O)C(=O)N[C@@H](CC(C)C)C(=O)N[C@@H](CCC(=O)O)C(=O)NCC(=O)NCC(=O)N1CCC[C@H]1C(=O)N[C@@H](CO)C(=O)N[C@@H](CO)C(=O)NCC(=O)N[C@@H](C)C(=O)N1CCC[C@H]1C(=O)N1CCC[C@H]1C(=O)N1CCC[C@H]1C(=O)N[C@@H](CO)C(N)=O)C(C)C [Example 101] | 0.139 | > 5000
5 | CC[C@H](C)[C@H](NC(=O)[C@H](CCCN)NC(=O)[C@H](CC(=O)O)NC(=O)[C@H](CC(C)C)NC(=O)[C@](C)(CC(C)C)NC(=O)[C@@H](NC(=O)[C@H](CO)NC(=O)[C@H](Cc1ccc(O)cc1)NC(=O)[C@H](CC(=O)O)NC(=O)[C@H](CO)NC(=O)[C@@H](NC(=O)[C@H](Cc1ccccc1)NC(=O)[C@@H](NC(=O)CNC(=O)[C@H](CCC(=O)O)NC(=O)C(C)(C)NC(=O)[C@@H](N)Cc1ccc(O)cc1)[C@@H](C)O)[C@@H](C)CC)[C@@H](C)CC)C(=O)N[C@@H](Cc1c[nH]cn1)C(=O)N[C@@H](CCC(N)=O)C(=O)NC(C)(C)C(=O)N[C@@H](CCC(=O)O)C(=O)N[C@@H](Cc1ccccc1)C(=O)N[C@H](C(=O)N[C@H](CCC(=O)O)C(=O)N[C@@H](Cc1ccc(O)cc1)C(=O)N[C@@H](CCCCNC(=O)COCCOCCNC(=O)COCCOCCNC(=O)CC[C@H](NC(=O)CCCCCCCCCCCCCCCCCCC(=O)O)C(=O)O)C(=O)N[C@@H](CC(C)C)C(=O)N[C@@H](CCC(=O)O)C(=O)NCC(=O)NCC(=O)N1CCC[C@H]1C(=O)N[C@@H](CO)C(=O)N[C@@H](CO)C(=O)NCC(=O)N[C@@H](C)C(=O)N1CCC[C@H]1C(=O)N1CCC[C@H]1C(=O)N1CCC[C@H]1C(=O)N[C@@H](CO)C(N)=O)C(C)C [Example 102] (H-Y[Aib]EGTFISDYSI[αMeL]LD[Orn]IHQ[Aib]EFV[dE]YK([AEEA-AEEA-γGlu-C20 diacid])LEGGPSSGAPPPS-NH2) | 0.164 | > 5000
6 | CC[C@H](C)[C@H](NC(=O)[C@H](CCCN)NC(=O)[C@H](CC(=O)O)NC(=O)[C@H](CC(C)C)NC(=O)[C@](C)(CC(C)C)NC(=O)[C@@H](NC(=O)[C@H](CO)NC(=O)[C@H](Cc1ccc(O)cc1)NC(=O)[C@H](CC(=O)O)NC(=O)[C@H](CO)NC(=O)[C@@H](NC(=O)[C@H](Cc1ccccc1)NC(=O)[C@@H](NC(=O)CNC(=O)[C@H](CCC(=O)O)NC(=O)C(C)(C)NC(=O)[C@@H](N)Cc1ccc(O)cc1)[C@@H](C)O)[C@@H](C)CC)[C@@H](C)CC)C(=O)N[C@@H](Cc1c[nH]cn1)C(=O)N[C@@H](CCC(N)=O)C(=O)NC(C)(C)C(=O)N[C@@H](CC(=O)O)C(=O)N[C@@H](Cc1ccccc1)C(=O)N[C@H](C(=O)N[C@@H](CCC(=O)O)C(=O)N[C@@H](Cc1ccc(O)cc1)C(=O)N[C@@H](CCCCNC(=O)COCCOCCNC(=O)COCCOCCNC(=O)CC[C@H](NC(=O)CCCCCCCCCCCCCCCCC(=O)O)C(=O)O)C(=O)N[C@@H](CC(C)C)C(=O)N[C@@H](CCC(=O)O)C(=O)NCC(=O)NCC(=O)N1CCC[C@H]1C(=O)N[C@@H](CO)C(=O)N[C@@H](CO)C(=O)NCC(=O)N[C@@H](C)C(=O)N1CCC[C@H]1C(=O)N1CCC[C@H]1C(=O)N1CCC[C@H]1C(=O)N[C@@H](CO)C(N)=O)C(C)C [Example 103] (H-Y[Aib]EGTFISDYSI[αMeL]LD[Orn]IHQ[Aib]DFVEYK([AEEA-AEEA-γGlu-C18 diacid])LEGGPSSGAPPPS-NH2) | 0.0405 | > 5000

Source: patent US12723063B2, “GIPR-agonist compounds” (Eli Lilly and Company, priority 2019, dated 2026)
